Experimental data taken from patent US20230159510A1, “NOVEL PRMT5 INHIBITORS” (AMGEN INC., priority 2020, published 2023).

Assays:
[1] = system: HCT116 MTAP null cells; experiment: HCT116 proliferation assay, MTAP null cells (CellTiter-Glo, 6 days); assay type: cell-based; conditions: HCT116-MTAP null, 144 h, read-out: Protif_ HCT116-MTAP null IC50
Summary of the method: (§1)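 RPMI 1640/10% FBS; overnight attachment at 37° C, 5% CO2; 8–9-pt 1:3 titration, top 1 or 10 µM; DMSO ctrl; luminescence readout.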

[2] = biological target: T1, PRMT5/MEP50 (Homo sapiens, UniProt O14744); experiment: MTase-Glo methyl transferase assay, Method B (FL-Histone H2A, 1 µM MTA, 1 h pre-incubation); assay type: biochemical; parameters: purchased Reaction Biology Corp RD-11-292; conditions: read-out: PRMT5 MTase Glo Ki (nM, Meth. B)
Description: Method B: The PRMT5 inhibitory activity of test compounds was determined using the MTase-Glo™ assay (Promega), which monitors the product (S-adenosyl homocysteine or SAH) of methyltransferase reactions. The PRMT5 MTase-Glo assay was conducted in a 384-well white ProxiPlate (PerkinElmer) in a total volume of 16 µL. The PRMT5 enzymatic reaction (in 8 µL) contained 4 nM PRMT5/MEP50 (Reaction Biology Corp, catalog no.: RD-11-292), 5 µM S-adenosyl methionine (SAM, Promega), 2.5 µM FL-Histone H2A (BPS Bioscience, catalog no.: 52021), 1 µM 5′-methylthioadenosine (MTA, Sigma) and ½ log serially diluted compounds in a reaction buffer of 50 mM Tris (pH 8.0), 50 mM NaCl, 0.01% Tween 20, 0.01% BSA, and 1 mM TCEP. Test compounds were pre-incubated with PRMT5/MEP50, SAM, and MTA for 1 hour before addition of FL-Histone H2A to initiate the PRMT5 reaction. The reaction was allowed to proceed for 20 hours at room temperature and was then terminated by addition of 1 µL of 9X MTase-Glo™ Reagent (Promega). After a 30-minute incubation at room temperature, 8 µL of MTase-Glo™ Detection Solution (Promega) was added and the plate was incubated at room temperature for an additional 30 minutes. The light signal corresponding to the amount of SAH produced by the PRMT5 reaction was subsequently measured using an Envision multimode reader (PerkinElmer). IC50 and KI values were obtained by analyzing dose-response curves using GraphPad Prism®.
Target sequence in this assay (O14744 2-637 limits assumed): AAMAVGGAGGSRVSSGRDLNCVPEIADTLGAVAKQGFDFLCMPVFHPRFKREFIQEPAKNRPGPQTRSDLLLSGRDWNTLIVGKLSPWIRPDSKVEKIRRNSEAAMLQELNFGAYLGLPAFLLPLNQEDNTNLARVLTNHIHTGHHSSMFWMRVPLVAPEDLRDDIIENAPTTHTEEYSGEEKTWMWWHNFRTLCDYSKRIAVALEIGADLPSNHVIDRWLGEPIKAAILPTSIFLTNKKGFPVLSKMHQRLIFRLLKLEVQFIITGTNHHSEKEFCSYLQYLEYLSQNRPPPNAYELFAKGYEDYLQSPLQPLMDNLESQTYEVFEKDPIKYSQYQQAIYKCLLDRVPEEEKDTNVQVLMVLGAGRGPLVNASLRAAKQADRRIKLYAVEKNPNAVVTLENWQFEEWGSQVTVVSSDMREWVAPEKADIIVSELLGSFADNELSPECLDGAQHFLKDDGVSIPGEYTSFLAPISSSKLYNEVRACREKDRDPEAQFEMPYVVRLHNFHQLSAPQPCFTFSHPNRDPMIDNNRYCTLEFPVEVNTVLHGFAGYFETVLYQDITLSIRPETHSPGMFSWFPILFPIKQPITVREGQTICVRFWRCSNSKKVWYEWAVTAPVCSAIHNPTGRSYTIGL
Target sequence in this assay (Q9BQA1 2-342 partner limits assumed): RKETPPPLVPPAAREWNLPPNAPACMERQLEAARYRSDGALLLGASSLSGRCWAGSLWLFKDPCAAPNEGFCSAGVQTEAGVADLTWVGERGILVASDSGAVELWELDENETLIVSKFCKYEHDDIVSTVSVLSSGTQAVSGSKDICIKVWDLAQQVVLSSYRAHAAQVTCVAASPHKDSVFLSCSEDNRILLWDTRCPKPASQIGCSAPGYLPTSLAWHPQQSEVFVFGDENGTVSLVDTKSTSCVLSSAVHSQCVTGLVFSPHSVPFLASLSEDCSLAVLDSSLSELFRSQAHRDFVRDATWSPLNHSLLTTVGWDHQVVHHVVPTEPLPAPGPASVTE

[3] = biological target: T1, PRMT5/MEP50; experiment: MTase-Glo methyl transferase assay, Method A (Histone H4 peptide, 1 µM MTA, 24 h pre-incubation); assay type: biochemical; parameters: made in house; conditions: read-out: PRMT5 MTase Glo Ki (nM, Meth. A)
Summary of the method: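 PRMT5/MEP50 (10 nM) pre-incubated 24 h with compound, 5 µM SAM and 1 µM MTA, then reaction started with 1 µM Histone H4 (1-21) peptide and run 2 h at room temperature in Tris pH 8.0 buffer. SAH formed detected by MTase-Glo luminescence; IC50 and KI from dose-response curves.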
Target sequence in this assay (O14744 whole entry): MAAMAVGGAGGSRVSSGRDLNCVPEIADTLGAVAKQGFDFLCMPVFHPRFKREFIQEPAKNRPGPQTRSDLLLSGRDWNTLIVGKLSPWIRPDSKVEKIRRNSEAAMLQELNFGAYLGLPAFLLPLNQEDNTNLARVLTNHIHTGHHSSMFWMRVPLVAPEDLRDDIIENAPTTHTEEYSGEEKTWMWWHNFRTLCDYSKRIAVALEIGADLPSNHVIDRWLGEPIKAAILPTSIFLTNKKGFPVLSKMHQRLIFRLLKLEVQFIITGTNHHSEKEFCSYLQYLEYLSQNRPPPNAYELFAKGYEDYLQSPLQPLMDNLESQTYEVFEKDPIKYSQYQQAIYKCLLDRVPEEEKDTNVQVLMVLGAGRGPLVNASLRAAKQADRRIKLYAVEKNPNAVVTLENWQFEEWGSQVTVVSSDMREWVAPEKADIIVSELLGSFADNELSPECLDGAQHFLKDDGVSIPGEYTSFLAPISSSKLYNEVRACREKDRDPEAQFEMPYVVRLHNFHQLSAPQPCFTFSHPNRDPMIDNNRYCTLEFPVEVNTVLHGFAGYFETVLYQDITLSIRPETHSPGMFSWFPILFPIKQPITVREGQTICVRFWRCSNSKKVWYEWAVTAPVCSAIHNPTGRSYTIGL
Target sequence in this assay (Q9BQA1 whole entry partner): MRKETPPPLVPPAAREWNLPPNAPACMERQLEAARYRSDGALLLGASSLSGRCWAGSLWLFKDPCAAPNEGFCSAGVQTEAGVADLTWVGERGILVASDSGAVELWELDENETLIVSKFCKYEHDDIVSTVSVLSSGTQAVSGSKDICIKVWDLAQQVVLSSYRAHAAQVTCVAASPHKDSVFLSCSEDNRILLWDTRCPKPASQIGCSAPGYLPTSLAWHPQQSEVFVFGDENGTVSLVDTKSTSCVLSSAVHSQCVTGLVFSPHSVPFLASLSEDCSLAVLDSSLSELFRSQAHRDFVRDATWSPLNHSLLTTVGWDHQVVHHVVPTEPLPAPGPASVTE

[4] = system: HCT116 WT cells; experiment: HCT116 proliferation assay, WT cells (CellTiter-Glo, 6 days); assay type: cell-based; conditions: Homo sapiens, HCT-116, 144 h, read-out: Prolif_HCT116-WT IC50
Summary of the method: as §1

Question: What does the source list for Cc1cc2cc(C(=O)N(Cc3ccc(N)cn3)Cc3c[nH]c4ccccc34)ccc2nc1N [Example 691, 2-amino-N-[(5-amino-2-pyridyl)methyl]-N-(1H-indol-3-ylmethyl)-3-methyl-quinoline-6-carboxamide]?
Answer: IC50 [1]: 520 nM; Ki [2]: 3.51 nM

Question: How did the IC50 [1] turn out when Cc1cc2cc(C(=O)N(Cc3ccc(C(N)=O)nc3)Cc3ccc(C(F)(F)F)cn3)ccc2nc1N [Example 637, 2-amino-N-[(6-carbamoyl-3-pyridyl)methyl]-3-methyl-N-[[5-(trifluoromethyl)-2-pyridyl]methyl] quinoline-6-carboxamide] was run?
Answer: Its IC50 is over 1000 nM.

Question: And the Ki [2]?
Answer: Its Ki is 5.2 nM.

Question: Which IC50 [1] does the source give for Cc1cc2cc(C(=O)N(Cc3ccc(C(F)(F)F)cn3)CC3CCC(O)C3)ccc2nc1N (stereo not drawn) [Example 677, 2-amino-N-[(3-hydroxycyclopentyl)methyl]-3-methyl-N-[[5-(trifluoromethyl)-2-pyridyl]methyl] quinoline-6-carboxamide] here?
Answer: The IC50 was 950 nM.

Question: And the Ki [2]?
Answer: The Ki was 9.37 nM.

Question: Which results are given for Cc1cc2cc(C(=O)N(Cc3cccc(-n4cncn4)c3)Cc3ccc(C(F)(F)F)cn3)ccc2nc1N [Example 649, 2-amino-3-methyl-N-[[3-(1,2,4-triazol-1-yl)phenyl]methyl]-N-[[5-(trifluoromethyl)-2-pyridyl]methyl] quinoline-6-carboxamide]?
Answer: IC50 [1]: 310 nM; Ki [2]: 2.69 nM

Question: With Cc1cc2cc(C(=O)N(Cc3ncccc3Br)CC(C)C)ccc2nc1N [Example 640, 2-amino-N-[(3-bromo-2-pyridyl)methyl] -N-isobutyl-3-methylquinoline-6-carboxamide] as the molecule, how does the IC50 [1] read?
Answer: Its IC50 is 730 nM.

Question: What about the Ki [2] of the same molecule?
Answer: The Ki was 14.1 nM.

Question: For Cc1cc2cc(C(=O)N(CCC3CC3)Cc3ccc(C(F)(F)F)cn3)ccc2nc1N [Example 695, 2-amino-N-(2-cyclopropylethyl)-3-methyl-N-[[5-(trifluoromethyl)-2-pyridyl]methyl] quinoline-6-carboxamide], which IC50 [1] is on record?
Answer: Its IC50 is 760 nM.

Question: And the Ki [2]?
Answer: The Ki was 6.3 nM.

Question: What does the source list for Cc1cc2cc(C(=O)N(Cc3ccc(O)cc3)Cc3ccc(C(F)(F)F)cn3)ccc2nc1N [Example 661, 2-amino-N-[(4-hydroxyphenyl)methyl]-3-methyl-N-[[5-(trifluoromethyl)-2-pyridyl]methyl] quinoline-6-carboxamide]?
Answer: IC50 [1]: 69 nM; Ki [2]: 1.81 nM

Question: Which IC50 [1] does the source give for C#CC(C)N(Cc1ccc(C(F)(F)F)cn1)C(=O)c1ccc2nc(N)c(C)cc2c1 (stereo not drawn) [Example 656, 2-amino-3-methyl-N-(1-methylprop-2-ynyl)-N-[[5-(trifluoromethyl)-2-pyridyl]methyl] quinoline-6-carboxamide] here?
Answer: Its IC50 is 210 nM.

Question: What about the Ki [2] of the same molecule?
Answer: The Ki was 5.28 nM.

Question: For Cc1cc2cc(C(=O)N(Cc3cc(Br)ccn3)CC(C)C)ccc2nc1N [Example 665, 2-amino-N-[(4-bromo-2-pyridyl)methyl]-N-isobutyl-3-methylquinoline-6-carboxamide], which IC50 [1] is on record?
Answer: Its IC50 is 680 nM.

Question: What about the Ki [2] of the same molecule?
Answer: Its Ki is 9.17 nM.

Question: For Cc1cc2cc(C(=O)N(Cc3cccc(-n4ccnn4)c3)Cc3ccc(C(F)(F)F)cn3)ccc2nc1N [Example 651, 2-amino-3-methyl-N-[[3-(triazol-1-yl)phenyl]methyl] -N-[ [5-(trifluoromethyl)-2-pyridyl]methyl] quinoline-6-carboxamide], which IC50 [1] is on record?
Answer: Its IC50 is 310 nM.

Question: And the Ki [2]?
Answer: Its Ki is 3 to 9 nM.

Question: For Cc1cc2cc(C(=O)N(CCC3CCC3)Cc3ccc(C(F)(F)F)cn3)ccc2nc1N [Example 629, 2-amino-N-(2-cyclobutylethyl)-3-methyl-N-((5-(trifluoromethyl)pyridin-2-yl)methyl)quinoline-6-carboxamide], which IC50 [1] is on record?
Answer: The IC50 was 770 nM.

Question: And the Ki [2]?
Answer: The Ki was 5.93 nM.

Question: Cc1cc2cc(C(=O)N(Cc3cccc(-n4cncn4)c3)CC(C)C)ccc2nc1N [Example 644, 2-amino-N-isobutyl-3-methyl-N-[[3-(1,2,4-triazol-1-yl)phenyl]methyl] quinoline-6-carboxamide] was tested. Which Ki [2] did it give?
Answer: Its Ki is 29.3 nM.

Question: Cc1cc2cc(C(=O)N(CC#CCO)Cc3ccc(C(F)(F)F)cn3)ccc2nc1N [Example 658, 2-amino-N-(4-hydroxybut-2-ynyl)-3-methyl-N-[[5-(trifluoromethyl)-2-pyridyl]methyl] quinoline-6-carboxamide] was tested. Which Ki [2] did it give?
Answer: Its Ki is 12.6 nM.

Question: For Cc1cc2cc(C(=O)N(Cc3ccc(C(F)(F)F)cn3)C(C)C(C)n3cccn3)ccc2nc1N (stereo not drawn) [Example 679, 2-amino-3-methyl-N-(1-methyl-2-pyrazol-1-yl-propyl)-N-[[5-(trifluoromethyl)-2-pyridyl]methyl] quinoline-6-carboxamide], which Ki [2] is on record?
Answer: The Ki was 36.8 nM.

Question: How did the Ki [2] turn out when Cc1cc2cc(C(=O)N(Cc3cncnc3)Cc3ccc(C(F)(F)F)cn3)ccc2nc1N [Example 626, 2-amino-3-methyl-N-(pyrimidin-5-ylmethyl)-N-((5-(trifluoromethyl)pyridin-2-yl)methyl)quinoline-6-carboxamide] was run?
Answer: The Ki was 42.7 nM.

Question: With Cc1cc2cc(C(=O)N(Cc3ccc(C(F)(F)F)cn3)C3CCCC3C#N)cnc2nc1N (stereo not drawn) [Example 700, 7-amino-N-(2-cyanocyclopentyl)-6-methyl-N-[[5-(trifluoromethyl)-2-pyridyl]methyl]-1,8-naphthyridine-3-carboxamide] as the molecule, how does the Ki [2] read?
Answer: The Ki was 38.1 nM.

Question: With Cc1cc2cc(C(=O)N(Cc3ccc(C(F)(F)F)cn3)C3CC3(C)C)ccc2nc1N (stereo not drawn) [Example 706, 2-amino-N-(2,2-dimethylcyclopropyl)-3-methyl-N-[[5-(trifluoromethyl)-2-pyridyl]methyl] quinoline-6-carboxamide] as the molecule, how does the Ki [2] read?
Answer: Its Ki is 31 nM.

Question: How did the Ki [2] turn out when Cc1cc2cc(C(=O)N(Cc3ccc(C(F)(F)F)cn3)C(CC(N)=O)C3CCOCC3)ccc2nc1N (stereo not drawn) [Example 682, 2-amino-N-(3-amino-3-oxo-1-tetrahydropyran-4-yl-propyl)-3-methyl-N-[[5-(trifluoromethyl)-2-pyridyl]methyl] quinoline-6-carboxamide] was run?
Answer: Its Ki is 23 nM.

Question: Which Ki [2] does the source give for Cc1cc2cc(C(=O)N(Cc3ccc(C(F)(F)F)cn3)C3CC4(C3)CC(F)(F)C4)ccc2nc1N [Example 698, 2-amino-N-(2,2-difluorospiro [3.3]heptan-6-yl)-3-methyl-N-[[5-(trifluoromethyl)-2-pyridyl]methyl] quinoline-6-carboxamide] here?
Answer: The Ki was 36.4 nM.

Question: With Cc1cc2cc(C(=O)N(Cc3ccc(N4CCCC4)cc3)CC(C)C)ccc2nc1N [Example 643, 2-amino-N-isobutyl-3-methyl-N-[(4-pyrrolidin-1-ylphenyl)methyl]quinoline-6-carboxamide] as the molecule, how does the Ki [2] read?
Answer: The Ki was 39.6 nM.

Question: Cc1cc2cc(C(=O)N(Cc3ccc(C(F)(F)F)cn3)C3CCCC3C#N)ncc2nc1N (stereo not drawn) [Example 701, 2-amino-N-(2-cyanocyclopentyl)-3-methyl-N-[[5-(trifluoromethyl)-2-pyridyl]methyl]-1,7-naphthyridine-6-carboxamide] was tested. Which Ki [2] did it give?
Answer: Its Ki is 37.2 nM.

Question: Cc1cc2cc(C(=O)N(Cc3ccc(C(F)(F)F)cn3)C3CC(C#N)C3)ccc2nc1N (stereo not drawn) [Example 697, 2-amino-N-(3-cyanocyclobutyl)-3-methyl-N-[[5-(trifluoromethyl)-2-pyridyl]methyl] quinoline-6-carboxamide] was tested. Which Ki [2] did it give?
Answer: The Ki was 36.5 nM.

Question: What does the source list for Cc1cc2cc(C(=O)N(Cc3ccccn3)Cc3ccc(C(F)(F)F)cn3)ccc2nc1N [Example 302, 2-amino-3-methyl-N-(2-pyridinylmethyl)-N-((5-(trifluoromethyl)-2-pyridinyl)methyl)-6-quinolinecarboxamide]?
Answer: IC50 [1]: 359 nM; Ki [3]: 0.3 nM; IC50 [4]: > 10000 nM

Question: What does the source list for Cc1cc2cc(C(=O)N(Cc3ccc(C(F)F)cn3)[C@@H]3CCC[C@H]3O)ccc2nc1N [Example 364, 2-amino-N-((5-(difluoromethyl)pyridin-2-yl)methyl)-N-((1R,2R)-2-hydroxycyclopentyl)-3-methylquinoline-6-carboxamide]?
Answer: IC50 [1]: 227 nM; Ki [3]: 0.18 nM; IC50 [4]: 6200 nM

Question: CCOc1ccc(CN(C(=O)c2ccc3nc(N)c(C)cc3c2)[C@H](C)c2ncccn2)nc1 [Example 375, 2-amino-N-((5-ethoxy-2-pyridinyl)methyl)-3-methyl-N-((1R)-1-(2-pyrimidinyl)ethyl)-6-quinolinecarboxamide] was tested. Which IC50 [1] did it give?
Answer: The IC50 was 64 nM.

Question: And the Ki [3]?
Answer: The Ki was 0.87 nM.

Question: What about the IC50 [4] of the same molecule?
Answer: Its IC50 is 2130 nM.

Question: With C[C@H](c1ncccn1)N(Cc1ccc(C(F)F)cn1)C(=O)c1ccc2nc(N)c(Br)cc2c1 [Example 410, 2-amino-3-bromo-N-((5-(difluoromethyl)-2-pyridinyl)methyl)-N-((1R)-1-(2-pyrimidinyl)ethyl)-6-quinolinecarboxamide] as the molecule, how does the IC50 [1] read?
Answer: Its IC50 is 88 nM.

Question: What about the Ki [3] of the same molecule?
Answer: The Ki was 0.04 nM.

Question: And the IC50 [4]?
Answer: The IC50 was 5390 nM.
